Source: patent US20240261315A1 (Omikron Italia S.r.l., priority 2021, published 2024)

How the values were obtained:
[1] = tested on: visual cortex; assay: Clinical observation: electro-functional test, PEV visual evoked potentials; format: in vivo, human; settings: after 6 months of treatment, in addition to hypotensive therapy, 3 patients
Protocol: 12 randomized patients were included in 4 groups: • CIT. GROUP-3 patients treated with citicoline in oral solution 10 ml/die corresponding to 500 mg/die of citicoline, in addition to the hypotensive therapy; • NIC. […] The patients were treated and followed for 6 months. At baseline and after 6 months of treatment complete eye examination including visual acuity, control of the intraocular pressure (IOP) with Goldmann tonometry (GAT); visual field testing, electro-functional and morphological examination were performed. Then (2) electro-functional test was performed: electroretinogram from PERG pattern and of the PEV visual evoked potentials to evaluate the bioelectric responses respectively of the retinal ganglion cells and of the visual cortex evoked from the visual stimuli. The patients were positioned in an acoustically insulated semi-dark room, in front of the display surrounded by a uniform field of luminance of 5 cd/m2. […] The signal to PERG and PEV was recorded by a small electrode of Ag/AgCl positioned respectively above the lower eyelid and on the scalp. […] The peak-peak widths were measured at PERG P50-N95 for each wave. […] During a recording session, simultaneous PERG and PEV were recorded at least twice (between two and six times) and the resulting waveforms were overlapped to verify the repeatability of results. […]

[2] = tested on: glaucomatous patients; settings: citicoline intramuscularly, 10-year follow-up; cited from earlier work
[3] = tested on: patients with controlled IOP; settings: oral citicoline, patients with IOP <18 mmHg on b-blockers; cited from earlier work
[4] = in five days; cited from earlier work
[5] = tested on: glaucomatous patients; settings: cited from earlier work

SMILES: NC(=O)c1cccnc1 [Nicotinamide]
- PEV P100 IT [1]: 119.5 (±7.00) ms

SMILES: C[N+](C)(C)CCOP(=O)([O-])OP(=O)(O)OC[C@H]1O[C@@H](n2ccc(N)nc2=O)C(O)C1O (some centres unmarked) [Citicoline, citidin-5′-difosfocholine]
- perimetric defect (areas of not perception) [2]: reduction of the perimetric defect
- latency time of VEP [3]: decrease in latency time of VEP
- width of PERG signal [3]: improvement in the width of PERG signal
- elimination of the marked products [4]: 16%
- increase of the width of P50-N95 tract of pERG ([5]; citicoline in oral solution): 100%
- loss of nervous fibres at the retinal layer through GDX ([5]; oral solution 500 mg/die, vs antihypertensive therapy only): slows down the loss of nervous fibres at the retinal layer
- PEV P100 IT [1]: 119.1 (±7.22) ms
